Assay results reported in EP2257297B1, “COMPOUNDS FOR USE IN THE TREATMENT OF ACNE, SEBORRHOEA AND SEBHORROEIC DERMATITIS, OR FOR REDUCING SEBUM SECRETION” (priority 2008, dated 2009).

Legend:
human MC1R = experiment: Human MC1R radioligand binding assay ([125I] NDP-MSH); conditions: Table 6, hMCR binding selectivity
Procedure: (§1) Radioligand binding assays were carried out using commercial or in-house prepared hMC1 R, hMC3R and hMC4R membranes and [^125I]
(§2) In-house plasma membranes were prepared from transfected mammalian cells (prepared as in Example 109, using plasmid DNA containing the human MC1 R, MC3R or MC4R gene or other gene of interest in a plasmid vector with a mammalian origin of replication): • Adherent cells were washed with warm Hanks buffered saline solution (HBSS). 1 mL of cold HBSS was added to each flask and the cells were scraped off with a rubber policeman. The scraped cells were added to a 50 mL tube on ice. The plates were then rinsed twice with 5 mL cold HBSS and this was also added to the tube. The cells were centrifuged at 1000 x g for 5 mins in a bench top centrifuge and the supernatant was decanted. The remaining cell pellet was resuspended in 0.25 M sucrose. The cell suspension was centrifuged again as previously and the pellet resuspended in 5 mL of 0.25 M sucrose containing protease inhibitors. The cells were homogenised by a 10 second pulse with an Ika disperser followed by 30 seconds on ice. The homogenisation and ice incubation was repeated three times. The mixture was then centrifuged at 1260 x g for 5 mins. […]

human MC4R = experiment: Human MC4R radioligand binding assay ([125I] NDP-MSH); conditions: Table 6, hMCR binding selectivity
Procedure: as §1, §2

human MC3R = experiment: Human MC3R radioligand binding assay ([125I] NDP-MSH); conditions: Table 6, hMCR binding selectivity
Procedure: as §1, §2

human MC5R = molecular target: T1, human MC5R (Homo sapiens, UniProt P33032); experiment: Human MC5R radioligand binding assay ([125I] NDP-MSH displacement, hMC5R membranes); conditions: hMC5R assay as in Example 102; compounds tested as trifluoroacetate or hydrochloride salts, or as free base
T1 construct: purchased Perkin Elmer RBXMC5M400UA
How it was run: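 Bound ligand collected by filtration on PEI-soaked GF/A filters and counted. Data fitted to a single-site competition model with fixed Hill coefficient to give EC50.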

T1 sequence (P33032 whole entry): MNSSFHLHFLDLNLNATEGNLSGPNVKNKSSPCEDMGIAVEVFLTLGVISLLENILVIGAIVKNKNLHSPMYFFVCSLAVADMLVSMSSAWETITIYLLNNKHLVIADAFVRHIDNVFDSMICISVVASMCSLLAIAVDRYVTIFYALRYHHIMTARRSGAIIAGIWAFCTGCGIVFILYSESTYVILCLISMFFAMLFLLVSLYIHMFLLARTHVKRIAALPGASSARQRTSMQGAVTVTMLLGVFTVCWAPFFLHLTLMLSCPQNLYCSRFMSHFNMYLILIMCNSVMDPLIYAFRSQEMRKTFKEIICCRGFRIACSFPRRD

Row | SMILES | IC50 (human MC5R) [nM] | other results
1 | N=C(N)NCCC[C@@H]1N[C@H](CNC(=O)c2ccc3ccccc3c2)CCN(CC(c2ccccc2)c2ccccc2)C1=O [Compound 105, N-(((3S,5S)-1-(2,2-diphenylethyl)-3-(3-guanidinopropyl)-2-oxo-1,4-diazepan-5-yl)methyl)-2-naphthamide] |  | IC50 (human MC1R): 6660 nM; IC50 (human MC4R): 3280 nM
2 | CCC(CC)CN1CC[C@@H](CNC(=O)/C=C/c2ccc(Cl)cc2)N[C@@H](CCN2CCCCC2)C1=O [Compound 348, (E)-3-(4-chlorophenyl)-N-(((3S,5S)-1-(2-ethylbutyl)-2-oxo-3-(2-(piperidin-1-yl)ethyl)-1,4-diazepan-5-yl)methyl)acrylamide] |  | IC50 (human MC3R): 1830 nM
3 | O=C(/C=C/c1ccc(Cl)cc1)NC[C@@H]1CCN(CC(c2ccccc2)c2ccccc2)C(=O)[C@H](CCN2CCCCC2)N1 [Compound 33, (E)-3-(4-chlorophenyl)-N-(((3S,5S)-1-(2,2-diphenylethyl)-2-oxo-3-(2-(piperidin-1-yl)ethyl)-1,4-diazepan-5-yl)methyl)acrylamide] |  | IC50 (human MC1R): 2850 nM; IC50 (human MC3R): 1500 nM; IC50 (human MC4R): 6060 nM
4 | Cc1ccc(C(=O)NC[C@@H]2CCN(CC(c3ccccc3)c3ccccc3)C(=O)[C@H](CCN3CCCCC3)N2)cc1C [Compound 285, N-(((3S,5S)-1-(2,2-diphenylethyl)-2-oxo-3-(2-(piperidin-1-yl)ethyl)-1,4-diazepan-5-yl)methyl)-3,4-dimethylbenzamide] | < 100 | 
5 | N=C(N)NCCC[C@@H]1N[C@H](CNC(=O)c2ccc(Cl)cc2Cl)CCN(CC(c2ccccc2)c2ccccc2)C1=O [Compound 136, 2,4-dichloro-N-(((3S,5S)-1-(2,2-diphenylethyl)-3-(3-guanidinopropyl)-2-oxo-1,4-diazepan-5-yl)methyl)benzamide] | < 100 | 
6 | NCCCC[C@@H]1N[C@H](CNC(=O)Cc2ccc3ccccc3c2)CCN(Cc2cccc3ccccc23)C1=O [Compound 118, N-(((3S,5S)-3-(4-aminobutyl)-1-(naphthalen-1-ylmethyl)-2-oxo-1,4-diazepan-5-yl)methyl)-2-(naphthalen-2-yl)acetamide] | < 10000 | 
7 | NC[C@@H]1N[C@H](CNC(=O)/C=C/c2ccc(Cl)cc2)CCN(CC(c2ccccc2)c2ccccc2)C1=O [Compound 275, (E)-N-(((3S,5S)-3-(aminomethyl)-1-(2,2-diphenylethyl)-2-oxo-1,4-diazepan-5-yl)methyl)-3-(4-chlorophenyl)acrylamide] | < 100 | 
8 | NCCC[C@@H]1N[C@H](CNC(=O)c2cc(-c3ccccc3)n[nH]2)CCN(CC(c2ccccc2)c2ccccc2)C1=O [Compound 256, N-(((3S,5S)-3-(3-aminopropyl)-1-(2,2-diphenylethyl)-2-oxo-1,4-diazepan-5-yl)methyl)-3-phenyl-1H-pyrazole-5-carboxamide] | < 1000 | 
9 | Cc1ccccc1/C=C/C(=O)NC[C@@H]1CCN(CC(c2ccccc2)c2ccccc2)C(=O)[C@H](CCCNC(=N)N)N1 [Compound 195, (E)-N-(((3S,5S)-1-(2,2-diphenylethyl)-3-(3-guanidinopropyl)-2-oxo-1,4-diazepan-5-yl)methyl)-3-o-tolylacrylamide] | < 100 | 
10 | O=C(/C=C/c1ccc(Cl)cc1)NC[C@@H]1CCN(CC(c2ccccc2)c2ccccc2)C(=O)[C@H](CCc2ccccc2)N1 [Compound 320, (E)-3-(4-chlorophenyl)-N-(((3S,5S)-1-(2,2-diphenylethyl)-2-oxo-3-phenethyl-1,4-diazepan-5-yl)methyl)acrylamide] | < 1000 | 
11 | N=C(N)NCCC[C@@H]1N[C@H](CNC(=O)/C=C/c2cccc(F)c2)CCN(CC(c2ccccc2)c2ccccc2)C1=O [Compound 173, (E)-N-(((3S,5S)-1-(2,2-diphenylethyl)-3-(3-guanidinopropyl)-2-oxo-1,4-diazepan-5-yl)methyl)-3-(3-fluorophenyl)acrylamide] | < 100 | 
12 | Cc1ccc(/C=C/C(=O)NC[C@@H]2CCN(CC(c3ccccc3)c3ccccc3)C(=O)[C@H](CCCNC(=N)N)N2)cc1 [Compound 171, (E)-N-(((3S,5S)-1-(2,2-diphenylethyl)-3-(3-guanidinopropyl)-2-oxo-1,4-diazepan-5-yl)methyl)-3-p-tolylacrylamide] | < 100 | 
13 | O=C(/C=C/c1ccc(Cl)cc1)NC[C@@H]1CCN(CC(c2ccccc2)c2ccccc2)C(=O)[C@H](CCC(=O)N2CCCCC2)N1 [Compound 318, (E)-3-(4-chlorophenyl)-N-(((3S,5S)-1-(2,2-diphenylethyl)-2-oxo-3-(3-oxo-3-(piperidin-1-yl)propyl)-1,4-diazepan-5-yl)methyl)acrylamide] | < 100 | 
